The source of these data is patent US20030027210A1, “Alpha synuclein aggregation assays” (priority 2001, published 2003).

Test [1] has as its target alpha synuclein peptide 61-90 (SEQ.ID.No.:3) (Homo sapiens, UniProt P37840). In words: Thioflavin T fluorescence disaggregation assay of aggregated alpha synuclein. In kind it is biochemical. As for the experimental part: Prior to assay, concentrated alpha synuclein peptide 61-90 (SEQ.ID.No.:3) was diluted into assay buffer containing Thioflavin T (20 uM) such that a signal to noise of approximately 5 to 1 was achieved. Rifampicin was maintained in 8% DMSO at a concentration of 2 mM. To break up super aggregates, the solution was sonicated using a Heat System sonicator with a microprobe. The samples were sonicated in 30 ml volume in a Coming 50 ml centrifuge tube for 25, 3 second bursts. The assay was run in LJL HE (LJL Biosystems) plates as follows: 18 μl of alpha synuclein/thioflavin T mixture was added to the well followed by 2 μl of a 30% DMSO or by rifampicin diluted in 30% DMSO. As a control, buffer with thioflavin T was added to separate wells in the absence of alpha synuclein. The samples were incubated at room temperature for the times indicated in FIG. 1 and were then read on the LJL reader using wavelengths of 440 nm and 485 nm.
To test the effect of incubation times on disaggregation of alpha synuclein, alpha synuclein was incubated with a rifampicin concentration curve ranging from 0.1 μM to 100 μM for 2 and 5 hours. The data are the mean of 11 samples±the standard deviation at each time point.
The signal to background are from quadruplicate samples of buffer (low value) and alpha synuclein/TFT buffer (high value). The EC50 were generated from 11 samples of each time point.
To narrow down the incubation times as well as to identify the concentrations of rifampicin to use, the above study was repeated using incubation times ranging from 5 minutes to 2 hours and rifampicin concentrations of 1.56 μM to 15 μM.

The target of a further test is T1, alpha synuclein protein (Homo sapiens, UniProt P37840).
T1 construct: made in house; host or cells: E. coli ER2566
The experiment in a line: Thioflavin T alpha-synuclein aggregation assay with or without seeding. The conditions noted are these: peptide used for seeding; Thioflavin T fluorescence. In kind it is biochemical. As for the experimental part: A fluorescence-based TFT high-throughput screening assay was developed for the a-synuclein aggregation. Thioflavin T absorbs at 450 nm and emits at 485 nm; fluorescence increases 40-fold in the presence of beta-sheet conformation (LeVine and Scholten). Thioflavin T was obtained from Fluka Chemika. Twenty four micrograms (24 μg) of alpha synuclein protein in assay buffer (0.2 M potassium chloride pH=6; 0.075% sodium azide) was added to microvolume multiwell plate holding 10 μL. Then, Thioflavin T (TFT) was added to each well to a final concentration of 20 μM and contents were thoroughly mixed. Alpha-synuclein was allowed to fully aggregated prior to conducting a dissaggregation assay. Degree of aggregation was measured by increase in Thioflavin T fluorescence. Alpha-synuclein aggregation was conducted with or without seeding (using a peptide to enhance the rate of aggregation).
Alpha synuclein aggregates through the formation of a beta sheet structure, measured by increased fluorescence of Thioflavin T at 485 nm.

Read-outs that look alike come from different tables or passages of the source.

For the molecule `CO[C@H]1/C=C/O[C@@]2(C)Oc3c(C)c(O)c4c(O)c(c(/C=N/N5CCN(C)CC5)c(O)c4c3C2=O)NC(=O)/C(C)=C\C=C\[C@H](C)[C@H](O)[C@@H](C)[C@@H](O)[C@@H](C)[C@H](OC(C)=O)[C@@H]1C` [Rifampicin], the EC50 in test [1] (incubation time 15 minutes, rifampicin 1.56 μM to 15 μM, read-out: EC50 for Rifampicin to disaggregate alpha synuclein) turned out to be 311 µM; in test [1] (incubation time 30 minutes, rifampicin 1.56 μM to 15 μM, read-out: EC50 for Rifampicin to disaggregate alpha synuclein), 76 µM; in test [1] (incubation time 60 minutes, rifampicin 1.56 μM to 15 μM, read-out: EC50 for Rifampicin to disaggregate alpha synuclein), 16.8 µM; in test [1] (incubation time 2 hours, rifampicin 0.1 μM to 100 μM, room temperature, read-out: Rifampicin EC50), 23.9 µM; in test [1] (incubation time 120 minutes, rifampicin 1.56 μM to 15 μM, read-out: EC50 for Rifampicin to disaggregate alpha synuclein) it was 10.6 µM; in test [1] (incubation time 5 hours, rifampicin 0.1 μM to 100 μM, room temperature, read-out: Rifampicin EC50), 21 µM.

“EQVTNVGGAVVTGVT [syn 61-75, synthetic peptide of residues 61 to 75 of human alpha synuclein, enhances rate of aggregation]”: the “effect of seeding peptide on rate of synuclein aggregation” value with alpha synuclein protein is listed as “speed up synuclein aggregation”.

In general, EC50 refers to the concentration that produces a half-maximal response.
